Assay results published in patent US11000033B2, “Ketone or oxime compound, and herbicide” (NISSAN CHEMICAL CORPORATION, priority 2014, dated 2021).

Columns and labels:
Format in all cases: in vivo
[1] = tested on: Echinochloa oryzacola Vasing.; test: Test Example 1: herbicidal activity, application before weed generation in submerged conditions (symbol A); conditions: application herbicide amount 320 g/ha
Summary of the method: (§1)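 Weeds are sown into submerged alluvial soil alongside transplanted 2.5-leaf rice, and the compound, as an emulsion diluted to a set rate, is applied onto the water before emergence. Rating on the 0–5 herbicidal-ratio scale follows 3 weeks of greenhouse growth at 25–30 °C.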

Scirpus juncoides = test: Test Example 1: herbicidal activity, application before weed generation in submerged conditions (symbol B); conditions: application herbicide amount 320 g/ha
Summary of the method: as §1

[2] = tested on: Echinochloa crus-galli var. crus-galli; test: Test Example 3: herbicidal effect by foliage application, Wagner pot (symbol H); conditions: application herbicide amount 320 g/ha
Summary of the method: (§2)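 Seeds sown in alluvial soil kept under 0.1–0.5 cm water, greenhouse 25–30 °C; 14 d growth. Leaves treated by small sprayer with water-diluted emulsion at a predetermined rate. Effect graded by set scale, 3 weeks.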

Alopecurus myosuroides [3] = test: Test Example 4: herbicidal effect by soil treatment (symbol J); conditions: application herbicide amount 320 g/ha
Summary of the method: (§3)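 Seeds were sown in sterilized diluvial soil, covered with about 1.5 cm of soil, and the soil surface was sprayed with a water-diluted emulsion of the compound at a predetermined rate. Plants grew in a greenhouse at 25° C. to 30° C.; effects were scored visually 3 weeks after application.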

Galium spurium [4] = test: Test Example 4: herbicidal effect by soil treatment (symbol Q); conditions: application herbicide amount 320 g/ha
Summary of the method: as §3

wheat = test: Test Example 4: effect on crop by soil treatment (symbol e); conditions: application herbicide amount 320 g/ha
Summary of the method: (§4)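 Crop seeds, among them rice, wheat, beet and rapeseed, were sown in sterilized diluvial soil and covered with about 1.5 cm of soil. Boxes were kept in a greenhouse at 25° C. to 30° C. for plant growth.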

rapeseed [5] = test: Test Example 4: effect on crop by soil treatment (symbol g); conditions: application herbicide amount 320 g/ha
Summary of the method: as §4

Digitaria ciliaris = test: Test Example 5: herbicidal effect by foliage application, plastic box (symbol F); conditions: 320 g/ha, 3 weeks after application
Summary of the method: (§5)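 Visual herbicidal score, taken three weeks post-application, of seedlings sprayed on the foliage with water-diluted emulsion at a predetermined amount; plants were 14 days old, greenhouse-raised at 25° C. to 30° C.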

Alopecurus myosuroides [6] = test: Test Example 5: herbicidal effect by foliage application, plastic box (symbol J); conditions: 320 g/ha, 3 weeks after application
Summary of the method: as §5

Apera spica-venti [7] = test: Test Example 5: herbicidal effect by foliage application, plastic box (symbol L); conditions: 320 g/ha, 3 weeks after application
Summary of the method: as §5

Abutilon theophrasti = test: Test Example 5: herbicidal effect by foliage application, plastic box (symbol M); conditions: 320 g/ha, 3 weeks after application
Summary of the method: as §5

Amaranthus retroflexus = test: Test Example 5: herbicidal effect by foliage application, plastic box (symbol N); conditions: 320 g/ha, 3 weeks after application
Summary of the method: as §5

Stellaria media = test: Test Example 5: herbicidal effect by foliage application, plastic box (symbol P); conditions: 320 g/ha, 3 weeks after application
Summary of the method: as §5

Galium spurium [8] = test: Test Example 5: herbicidal effect by foliage application, plastic box (symbol Q); conditions: 320 g/ha, 3 weeks after application
Summary of the method: as §5

beet = test: Test Example 5: effect on crop by foliage application, plastic box (symbol f); conditions: 320 g/ha, 3 weeks after application
Summary of the method: (§6)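 A greenhouse held between 25° C. and 30° C. was used to grow plants sown spot-wise, beneath ~1.5 cm of soil, in boxes of sterilized diluvial soil.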

rapeseed [9] = test: Test Example 5: effect on crop by foliage application, plastic box (symbol g); conditions: 320 g/ha, 3 weeks after application
Summary of the method: as §6

Cyperus difformis = test: Test Example 3: herbicidal effect by foliage application, Wagner pot (symbol E); conditions: application herbicide amount 320 g/ha
Summary of the method: as §2

Setaria viridis = test: Test Example 4: herbicidal effect by soil treatment (symbol G); conditions: application herbicide amount 320 g/ha
Summary of the method: as §3

Apera spica-venti [10] = test: Test Example 4: herbicidal effect by soil treatment (symbol L); conditions: application herbicide amount 320 g/ha
Summary of the method: as §3

Structure (SMILES): CON=C(C)CC1CC(OC(=O)N(C)C)=C(c2c(C)cc(C)cc2OC)C1=O (centres unmarked) [6-109]
- Herbicidal effect grade, A: Echinochloa oryzacola Vasing. [1]: 5 (Herbicidal ratio of 90% or more (almost completely withered))
- Herbicidal effect grade, B: Scirpus juncoides (Scirpus juncoides): 3 (Herbicidal ratio of 40% or higher and lower than 70%)
- herbicidal effect on H (Echinochloa crus-galli var. crus-galli), grade 0-5 [2]: 5 (Herbicidal ratio of 90% or more (almost completely withered))
- Herbicidal effect grade, J: Alopecurus myosuroides (Alopecurus myosuroides [3]): 5 (Herbicidal ratio of 90% or more (almost completely withered))
- Herbicidal effect grade, Q: Galium spurium (Galium spurium [4]): 0 (Herbicidal ratio of 5% or lower (almost no effect))
- Effect on crop grade, e: wheat (wheat): 0 (Herbicidal ratio of 5% or lower (almost no effect))
- Effect on crop grade, g: rapeseed (rapeseed [5]): 0 (Herbicidal ratio of 5% or lower (almost no effect))
- F: Digitaria ciliaris, herbicidal effect (criteria of Test Example 1) (Digitaria ciliaris): 5 (Herbicidal ratio of 90% or more (almost completely withered))
- J: Alopecurus myosuroides, herbicidal effect (criteria of Test Example 1) (Alopecurus myosuroides [6]): 5 (Herbicidal ratio of 90% or more (almost completely withered))
- L: Apera spica-venti, herbicidal effect (criteria of Test Example 1) (Apera spica-venti [7]): 5 (Herbicidal ratio of 90% or more (almost completely withered))
- M: Abutilon theophrasti, herbicidal effect (criteria of Test Example 1) (Abutilon theophrasti): 4 (Herbicidal ratio of 70% or higher and lower than 90%)
- N: Amaranthus retroflexus, herbicidal effect (criteria of Test Example 1) (Amaranthus retroflexus): 4 (Herbicidal ratio of 70% or higher and lower than 90%)
- P: Stellaria media, herbicidal effect (criteria of Test Example 1) (Stellaria media): 0 (Herbicidal ratio of 5% or lower (almost no effect))
- Q: Galium spurium, herbicidal effect (criteria of Test Example 1) (Galium spurium [8]): 0 (Herbicidal ratio of 5% or lower (almost no effect))
- f: beet, effect on crop (criteria of Test Example 1) (beet): 0 (Herbicidal ratio of 5% or lower (almost no effect))
- g: rapeseed, effect on crop (criteria of Test Example 1) (rapeseed [9]): 4 (Herbicidal ratio of 70% or higher and lower than 90%)

Structure (SMILES): CON=C(C)CC1CC(O)=C(c2c(C)cc(-c3ccsc3)cc2C)C1=O (centres unmarked) [6-106]
- Herbicidal effect grade, A: Echinochloa oryzacola Vasing. [1]: 5 (Herbicidal ratio of 90% or more (almost completely withered))
- Herbicidal effect grade, B: Scirpus juncoides (Scirpus juncoides): 5 (Herbicidal ratio of 90% or more (almost completely withered))
- herbicidal effect on H (Echinochloa crus-galli var. crus-galli), grade 0-5 [2]: 4 (Herbicidal ratio of 70% or higher and lower than 90%)
- Herbicidal effect grade, J: Alopecurus myosuroides (Alopecurus myosuroides [3]): 3 (Herbicidal ratio of 40% or higher and lower than 70%)
- Herbicidal effect grade, Q: Galium spurium (Galium spurium [4]): 0 (Herbicidal ratio of 5% or lower (almost no effect))
- Effect on crop grade, e: wheat (wheat): 0 (Herbicidal ratio of 5% or lower (almost no effect))
- Effect on crop grade, g: rapeseed (rapeseed [5]): 3 (Herbicidal ratio of 40% or higher and lower than 70%)
- F: Digitaria ciliaris, herbicidal effect (criteria of Test Example 1) (Digitaria ciliaris): 5 (Herbicidal ratio of 90% or more (almost completely withered))
- J: Alopecurus myosuroides, herbicidal effect (criteria of Test Example 1) (Alopecurus myosuroides [6]): 5 (Herbicidal ratio of 90% or more (almost completely withered))
- L: Apera spica-venti, herbicidal effect (criteria of Test Example 1) (Apera spica-venti [7]): 5 (Herbicidal ratio of 90% or more (almost completely withered))
- M: Abutilon theophrasti, herbicidal effect (criteria of Test Example 1) (Abutilon theophrasti): 0 (Herbicidal ratio of 5% or lower (almost no effect))
- N: Amaranthus retroflexus, herbicidal effect (criteria of Test Example 1) (Amaranthus retroflexus): 0 (Herbicidal ratio of 5% or lower (almost no effect))
- P: Stellaria media, herbicidal effect (criteria of Test Example 1) (Stellaria media): 3 (Herbicidal ratio of 40% or higher and lower than 70%)
- Q: Galium spurium, herbicidal effect (criteria of Test Example 1) (Galium spurium [8]): 3 (Herbicidal ratio of 40% or higher and lower than 70%)
- f: beet, effect on crop (criteria of Test Example 1) (beet): 0 (Herbicidal ratio of 5% or lower (almost no effect))
- g: rapeseed, effect on crop (criteria of Test Example 1) (rapeseed [9]): 5 (Herbicidal ratio of 90% or more (almost completely withered))

Structure (SMILES): CC(=O)CC1CC(O)=C(c2c(C)cc(-c3ccccn3)cc2C)C1=O (centres unmarked) [7-012]
- Herbicidal effect grade, A: Echinochloa oryzacola Vasing. [1]: 3 (Herbicidal ratio of 40% or higher and lower than 70%)
- Herbicidal effect grade, B: Scirpus juncoides (Scirpus juncoides): 0 (Herbicidal ratio of 5% or lower (almost no effect))
- herbicidal effect on H (Echinochloa crus-galli var. crus-galli), grade 0-5 [2]: 5 (Herbicidal ratio of 90% or more (almost completely withered))
- herbicidal effect on E, grade 0-5 (Cyperus difformis): 4 (Herbicidal ratio of 70% or higher and lower than 90%)
- Herbicidal effect grade, G: Setaria viridis (Setaria viridis): 5 (Herbicidal ratio of 90% or more (almost completely withered))
- Herbicidal effect grade, J: Alopecurus myosuroides (Alopecurus myosuroides [3]): 2 (Herbicidal ratio of 20% or higher and lower than 40%)
- Herbicidal effect grade, L: Apera spica-venti (Apera spica-venti [10]): 0 (Herbicidal ratio of 5% or lower (almost no effect))
- Herbicidal effect grade, Q: Galium spurium (Galium spurium [4]): 0 (Herbicidal ratio of 5% or lower (almost no effect))
- Effect on crop grade, e: wheat (wheat): 0 (Herbicidal ratio of 5% or lower (almost no effect))
- Effect on crop grade, g: rapeseed (rapeseed [5]): 0 (Herbicidal ratio of 5% or lower (almost no effect))
- F: Digitaria ciliaris, herbicidal effect (criteria of Test Example 1) (Digitaria ciliaris): 5 (Herbicidal ratio of 90% or more (almost completely withered))
- J: Alopecurus myosuroides, herbicidal effect (criteria of Test Example 1) (Alopecurus myosuroides [6]): 3 (Herbicidal ratio of 40% or higher and lower than 70%)
- L: Apera spica-venti, herbicidal effect (criteria of Test Example 1) (Apera spica-venti [7]): 0 (Herbicidal ratio of 5% or lower (almost no effect))
- M: Abutilon theophrasti, herbicidal effect (criteria of Test Example 1) (Abutilon theophrasti): 0 (Herbicidal ratio of 5% or lower (almost no effect))
- N: Amaranthus retroflexus, herbicidal effect (criteria of Test Example 1) (Amaranthus retroflexus): 0 (Herbicidal ratio of 5% or lower (almost no effect))
- P: Stellaria media, herbicidal effect (criteria of Test Example 1) (Stellaria media): 3 (Herbicidal ratio of 40% or higher and lower than 70%)
- f: beet, effect on crop (criteria of Test Example 1) (beet): 0 (Herbicidal ratio of 5% or lower (almost no effect))
- g: rapeseed, effect on crop (criteria of Test Example 1) (rapeseed [9]): 3 (Herbicidal ratio of 40% or higher and lower than 70%)

Structure (SMILES): CON=C(C)CC1CC(OCOC(=O)c2ccccc2)=C(c2c(C)cc(-c3ccc(Cl)cc3)cc2C)C1=O (centres unmarked) [6-083]
- Herbicidal effect grade, A: Echinochloa oryzacola Vasing. [1]: 5 (Herbicidal ratio of 90% or more (almost completely withered))
- Herbicidal effect grade, B: Scirpus juncoides (Scirpus juncoides): 4 (Herbicidal ratio of 70% or higher and lower than 90%)
- herbicidal effect on H (Echinochloa crus-galli var. crus-galli), grade 0-5 [2]: 5 (Herbicidal ratio of 90% or more (almost completely withered))
- herbicidal effect on E, grade 0-5 (Cyperus difformis): 5 (Herbicidal ratio of 90% or more (almost completely withered))
- G: Setaria viridis, herbicidal effect grade (Setaria viridis): 5 (Herbicidal ratio of 90% or more (almost completely withered))
- J: Alopecurus myosuroides, herbicidal effect grade (Alopecurus myosuroides [3]): 5 (Herbicidal ratio of 90% or more (almost completely withered))
- L: Apera spica-venti, herbicidal effect grade (Apera spica-venti [10]): 5 (Herbicidal ratio of 90% or more (almost completely withered))
- Q: Galium spurium, herbicidal effect grade (Galium spurium [4]): 0 (Herbicidal ratio of 5% or lower (almost no effect))
- e: wheat, effect on crop grade (wheat): 0 (Herbicidal ratio of 5% or lower (almost no effect))
- g: rapeseed, effect on crop grade (rapeseed [5]): 0 (Herbicidal ratio of 5% or lower (almost no effect))
- F: Digitaria ciliaris, herbicidal effect (criteria of Test Example 1) (Digitaria ciliaris): 5 (Herbicidal ratio of 90% or more (almost completely withered))
- J: Alopecurus myosuroides, herbicidal effect (criteria of Test Example 1) (Alopecurus myosuroides [6]): 5 (Herbicidal ratio of 90% or more (almost completely withered))
- L: Apera spica-venti, herbicidal effect (criteria of Test Example 1) (Apera spica-venti [7]): 5 (Herbicidal ratio of 90% or more (almost completely withered))
- M: Abutilon theophrasti, herbicidal effect (criteria of Test Example 1) (Abutilon theophrasti): 5 (Herbicidal ratio of 90% or more (almost completely withered))
- N: Amaranthus retroflexus, herbicidal effect (criteria of Test Example 1) (Amaranthus retroflexus): 3 (Herbicidal ratio of 40% or higher and lower than 70%)
- P: Stellaria media, herbicidal effect (criteria of Test Example 1) (Stellaria media): 1 (Herbicidal ratio of 5% or higher and lower than 20%)
- f: beet, effect on crop (criteria of Test Example 1) (beet): 3 (Herbicidal ratio of 40% or higher and lower than 70%)
- g: rapeseed, effect on crop (criteria of Test Example 1) (rapeseed [9]): 4 (Herbicidal ratio of 70% or higher and lower than 90%)
